The source of these data is patent US20220087987A1, “A METHOD FOR TREATING SWI/SNF COMPLEX-DEFICIENT CANCERS COMPRISING GLUTATHIONE (GSH) METABOLIC PATHWAY INHIBITOR” (National Cancer Center, priority 2018, published 2022).

Data set [1] has as its system ARID1A-WT and ARID1A-KO HCT116 cells. The data set is described as follows: Cell viability and colony formation assays. The class given is cell-based, human. As to conditions: cell viability 5 days, colony formation 10 days. How it is done: Cell viability was examined by measuring the cellular ATP level using the CellTiter-Glo Luminescent Cell Viability Assay (Promega). To measure cell viability after siRNA-mediated knockdown, cell lines were transfected with siRNAs (25 nM) using Lipofectamine RNAiMAX. After 48 hrs, cells were trypsinized and repeatedly transfected with siRNAs (25 nM) using Lipofectamine RNAiMAX. Cells were trypsinized after a further 48 hrs, counted, and reseeded at the specified density in 96-well plates. To measure cell viability after drug treatment, cells were trypsinized, counted, reseeded at the specified density in 96-well plates, and exposed to the indicated concentrations of drugs. Cell viability was measured using the CellTiter-Glo Luminescent Cell Viability Assay. Luminescence was measured using an Envision Multi-label plate reader (PerkinElmer).
The effect of drug treatment on cancer cell survival was evaluated in a colony formation assay. Cells were trypsinized, counted, reseeded at the specified density in 12-well plates, exposed to the indicated concentrations of drugs for 10-14 days, and fixed for 10 min in 50% (v/v) methanol containing 0.01% (w/v) crystal violet. Images were taken on LAS-3000 Imaging System (Fujifilm) and colonies were counted using Multi Gauge software.

Data set [2] relates to ARID1A-WT HCT116 cells. Put plainly: Drug library screen, cell viability (CellTiter-Glo). The format is cell-based, human. More on the design: key to Cell viability, WT: % viability relative to DMSO solvent-treated cells. Particulars: HCT116 ARID1A-WT; 10 μM for 5 days; relative to cells treated with solvent (DMSO). The procedure, abridged: (§1)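 ARID1A-WT and ARID1A-KO HCT116 cells screened against the library; viability read after 5 days by CellTiter-Glo luminescence, expressed relative to DMSO-treated cells. Hits: KO viability below 40% with WT viability above 80%.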

Data set [3] deals with ARID1A-deficient OVISE OCCC xenografts. Put plainly: Mouse xenograft model, OVISE. The format is in vivo, mice. Particulars: PRIMA-1 25 mg/kg. How it is done: All mouse experiments were approved by the National Cancer Center (NCC) animal Ethical Committee. Cells were counted and re-suspended in a 1:1 mixture of 100 μl culture medium and 100 μl Matrigel (BD Biosciences) on ice. Thereafter, cells (RMG-I: 2×10^6 cells/mouse; TOV21G: 2×10^5 cells/mouse for ARP-246 treatment and 1×10^6 cells/mouse for BSO treatment; OVISE: 2×10^6 cells/mouse; TOV21G-shNT: 2×10^5 cells/mouse; and TOV21G-shGCLC: 2×10^5 cells/mouse) were injected subcutaneously into the flank of 6-week-old female BALB/c-nu/nu mice (CLEA and Charles River). In the subcutaneous model, once the tumors were palpable (about 3-14 days after implantation), mice were randomly divided into two groups. In the drug treatment group, mice were injected intraperitoneally with either PBS or compounds [APR-246 (50 mg/kg), PRIMA-1 (25 mg/kg), or BSO (750 mg/kg)] once daily for 12-14 days. In the doxycycline (Dox) treatment study, TOV21G-shNT cells and TOV21G-shGCLC cells were injected into the flanks of 6-week-old female BALB/c-nu/nu mice. […] Tumor growth was measured every several days using calipers. The volume of implanted tumors was calculated using the formula V=L×W2/2, where V is volume (mm^3), L is the largest diameter (mm), and W is the smallest diameter (mm). […]

Data set [4] has as its system p53, p21. Put plainly: Immunoblot for p53 and p21. The class given is cell-based, human. As to conditions: ARID1A-WT and ARID1A-KO HCT116; 50 μM PRIMA-1, 50 μM APR-246, 10 μM Nutlin3a, 16 hrs. As for the experimental part:
The soluble fractions of whole-cell lysates were mixed with SDS sample buffer. […] The soluble fractions were mixed with SDS sample buffer. Tumor samples derived from xenografts were weighed and washed with PBS. […] The homogenized tumor samples were diluted in an additional 450 μl of NETN420 buffer, incubated for 30 min on ice, and centrifuged at 4° C. for 10 min at 15,000 rpm. The soluble fractions of whole-cell lysates were mixed with SDS sample buffer. Proteins were separated by SDS-PAGE, transferred to PVDF membranes, and immunoblotted with the indicated antibodies. β-actin was used as a loading control. Membranes were blocked overnight at 4° C. or for 1 hr at 25° C. with PVDF Blocking Reagent for Can Get Signal (TOYOBO) and then probed with Can Get Signal Solution 1 (TOYOBO) containing primary antibodies. After washing with TBS containing 0.1% Tween 20, the membranes were incubated with TBS containing 0.1% Tween 20, 1% BSA, and horseradish peroxidase-conjugated anti-mouse or anti-rabbit secondary antibodies, and visualized using Western Lightning ECL Pro (Perkin Elmer). Chemiluminescence signals were measured using LAS-3000 Imaging System (Fujifilm). Signal intensities were measured using Multi Gauge software.
(Immunoblotting shows a protein as a band on a membrane.)

Data set [5] concerns ARID1A-KO HCT116 cells. Put plainly: Drug library screen, cell viability (CellTiter-Glo). The format is cell-based, human. More on the design: key to Cell viability, KO: % viability relative to DMSO solvent-treated cells. Particulars: HCT116 ARID1A-KO; 10 μM for 5 days; relative to cells treated with solvent (DMSO). The gist of the method: as §1
On the technique in general: Cellular ATP, detected with luciferase, serves as a proxy for viable cell number.

Each structure is given as a SMILES string.

`O=C1C2CCN(CC2)C1(CO)CO` [PRIMA-1]: the “growth / survival of ARID1A-KO versus ARID1A-WT cells” value in data set [1] is listed as “reproducibly suppressed the growth of ARID1A-KO cells but not ARID1A-WT cells”. In addition, in data set [2], the “Cell viability, WT” value was 84.25. Also, in data set [3], the “body weight of mice” value is reported as “without causing significant weight loss” and the “growth of xenografts (tumor volume)” value is given as “significantly suppressed the growth”. The “expression of p53 and p21” value in data set [4] is recorded as “did not markedly affect expression of p53 or p21”. In addition, the “Cell viability, KO” value in data set [5] came out at 12.95.
